{"source": "patent US11518750B2", "about": "“3-methylideneoxan-4-one compounds and substituted derivatives thereof as inhibitors of telomerase” (NORTHWESTERN UNIVERSITY, priority 2019, dated 2022)", "key": {"[1]": {"molecular_target": "T1, telomerase in MCF7 cells in culture (Homo sapiens, UniProt O14746)", "T1 construct": "endogenous in cells; host or cells: MCF-7", "T1 sequence (O14746 whole entry)": "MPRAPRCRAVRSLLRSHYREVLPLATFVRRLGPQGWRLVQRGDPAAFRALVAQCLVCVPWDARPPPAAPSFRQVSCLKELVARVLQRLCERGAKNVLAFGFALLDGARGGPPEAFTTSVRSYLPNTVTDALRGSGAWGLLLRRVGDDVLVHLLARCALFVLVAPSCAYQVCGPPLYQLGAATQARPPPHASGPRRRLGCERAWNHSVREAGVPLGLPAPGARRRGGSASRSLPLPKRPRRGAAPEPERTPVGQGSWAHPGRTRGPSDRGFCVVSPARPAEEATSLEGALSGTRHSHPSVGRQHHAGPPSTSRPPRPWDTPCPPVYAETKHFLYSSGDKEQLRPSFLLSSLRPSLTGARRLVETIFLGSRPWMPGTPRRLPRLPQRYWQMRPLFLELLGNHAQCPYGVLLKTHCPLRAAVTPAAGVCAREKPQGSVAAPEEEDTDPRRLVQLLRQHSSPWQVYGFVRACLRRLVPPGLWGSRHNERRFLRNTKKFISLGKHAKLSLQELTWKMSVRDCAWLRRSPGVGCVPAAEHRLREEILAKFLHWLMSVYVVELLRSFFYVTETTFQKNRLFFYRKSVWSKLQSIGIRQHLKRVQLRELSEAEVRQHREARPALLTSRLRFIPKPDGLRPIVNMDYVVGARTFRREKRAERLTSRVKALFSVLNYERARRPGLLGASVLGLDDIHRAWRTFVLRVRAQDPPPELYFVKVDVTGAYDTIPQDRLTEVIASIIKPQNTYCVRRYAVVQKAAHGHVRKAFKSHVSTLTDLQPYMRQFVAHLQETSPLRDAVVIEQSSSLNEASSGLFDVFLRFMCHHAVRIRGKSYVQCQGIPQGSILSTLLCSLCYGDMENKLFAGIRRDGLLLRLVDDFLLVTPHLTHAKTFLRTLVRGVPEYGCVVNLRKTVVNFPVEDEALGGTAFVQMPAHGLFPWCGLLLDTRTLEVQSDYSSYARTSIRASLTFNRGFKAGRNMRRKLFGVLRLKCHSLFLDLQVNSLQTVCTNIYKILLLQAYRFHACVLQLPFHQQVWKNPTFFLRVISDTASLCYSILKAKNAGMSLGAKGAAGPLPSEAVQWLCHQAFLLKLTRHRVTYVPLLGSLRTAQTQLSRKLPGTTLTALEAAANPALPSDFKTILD", "T1 sequence (O60832 whole entry partner)": "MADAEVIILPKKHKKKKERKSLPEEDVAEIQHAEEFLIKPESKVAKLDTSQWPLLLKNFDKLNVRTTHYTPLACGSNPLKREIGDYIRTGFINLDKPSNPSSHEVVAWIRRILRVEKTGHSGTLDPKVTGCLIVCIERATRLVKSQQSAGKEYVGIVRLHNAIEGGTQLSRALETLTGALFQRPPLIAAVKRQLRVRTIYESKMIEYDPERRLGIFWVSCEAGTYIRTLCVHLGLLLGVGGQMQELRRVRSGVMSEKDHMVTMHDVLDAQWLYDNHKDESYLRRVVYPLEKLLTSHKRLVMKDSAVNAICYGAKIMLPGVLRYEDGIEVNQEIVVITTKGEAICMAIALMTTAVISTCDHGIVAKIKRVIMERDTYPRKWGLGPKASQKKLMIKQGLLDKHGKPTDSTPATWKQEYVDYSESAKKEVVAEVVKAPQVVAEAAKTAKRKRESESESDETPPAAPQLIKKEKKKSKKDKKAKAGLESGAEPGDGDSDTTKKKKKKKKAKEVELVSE", "T1 sequence (Q9NPE3 whole entry partner)": "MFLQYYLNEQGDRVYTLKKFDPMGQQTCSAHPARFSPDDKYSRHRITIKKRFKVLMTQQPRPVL", "T1 sequence (Q9NX24 whole entry partner)": "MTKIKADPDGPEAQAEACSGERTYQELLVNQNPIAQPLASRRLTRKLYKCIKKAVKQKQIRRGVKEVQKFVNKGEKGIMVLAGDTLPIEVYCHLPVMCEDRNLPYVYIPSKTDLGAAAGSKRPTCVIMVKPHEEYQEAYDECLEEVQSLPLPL", "T1 sequence (Q9NY12 whole entry partner)": "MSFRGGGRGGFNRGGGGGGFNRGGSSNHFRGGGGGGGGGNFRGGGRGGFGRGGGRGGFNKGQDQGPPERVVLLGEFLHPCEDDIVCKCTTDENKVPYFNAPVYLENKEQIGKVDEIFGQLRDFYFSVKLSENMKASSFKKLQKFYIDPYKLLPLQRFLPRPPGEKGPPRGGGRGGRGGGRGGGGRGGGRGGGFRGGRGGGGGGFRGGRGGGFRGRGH", "T1 sequence (Q9BUR4 whole entry partner)": "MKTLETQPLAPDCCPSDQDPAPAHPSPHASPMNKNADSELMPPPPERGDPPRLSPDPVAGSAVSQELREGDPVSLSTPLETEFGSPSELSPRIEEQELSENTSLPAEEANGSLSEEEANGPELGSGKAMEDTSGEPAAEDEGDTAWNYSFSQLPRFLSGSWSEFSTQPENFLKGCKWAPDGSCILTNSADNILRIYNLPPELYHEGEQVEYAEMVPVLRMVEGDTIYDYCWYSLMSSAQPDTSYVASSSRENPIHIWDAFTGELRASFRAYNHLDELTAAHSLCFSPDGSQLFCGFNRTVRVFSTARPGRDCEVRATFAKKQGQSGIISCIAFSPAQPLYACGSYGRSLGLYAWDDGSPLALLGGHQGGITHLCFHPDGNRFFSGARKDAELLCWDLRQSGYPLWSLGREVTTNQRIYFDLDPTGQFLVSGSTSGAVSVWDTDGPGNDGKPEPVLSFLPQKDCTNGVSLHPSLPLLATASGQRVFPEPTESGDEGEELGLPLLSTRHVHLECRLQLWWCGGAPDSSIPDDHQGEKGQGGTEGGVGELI", "assay": "TRAP assay in cultured cells", "type": "cell-based", "conditions": "TRAP assay, MCF7 cells in culture", "procedure": "Telomeric Repeat Amplification Protocol Assay. The telomeric repeat amplification protocol (TRAP) assay was performed using the TRAPeze RT Telomerase Detection Kit (EMD Millipore) and iTaq DNA polymerase (Bio-Rad) according to the manufacturer's protocol.\nCultured Cells TRAP Analysis. MCF-7, HeLa, ACHN, MDA-MB231 and A549 cells were cultured in DMEM media supplemented with 10% Fetal Bovine Serum (FBS), 1% pen/strep and with 5% CO2 and 37° C. Cells were plated in 96 well plates and allowed to attach for 24 h. Media was removed, and fresh media containing various concentrations of compound was added, and the plate was incubated for 24 h. […] The cell extract was then centrifuged at 12,000×g for 20 min at 4° C. to remove cell debris. Note: “fresh” media constitutes media supplemented with 10% Fetal Bovine Serum (FBS) and 1% pen/strep that has not been previously used for cell culture (e.g., not conditioned media). TRAP analysis was conducted as above."}, "MCF-7 proteome": {"test_system": "MCF-7 proteome", "assay": "Competitive gel imaging with 5-iodoacetamido-fluorescein (competitive ABPP)", "type": "binding, human", "conditions": "10 nM to 100 μM, 1 hr, then fluorescein-iodoacetamide 10 μM", "procedure": "Competitive Gel Image Analysis. MCF-7 cells were cultured in DMEM media supplemented with 10% Fetal Bovine Serum (FBS), 1% pen/strep and with 5% CO2 and 37° C. Cells were plated cultured for 3 days. Flasks were rinsed twice with PBS and treated with 0.05% trypsin-EDTA (Thermo Fisher) to detach cells. The cell suspension was washed twice in PBS and the cell pellet was resuspended in 200 μl of M-PER extraction reagent (Thermo Fisher)/10^6 cells, and incubated for 30 min. Cell extracts were transferred to microcentrifuge tubes, 200 μl/tube, and centrifuged at 12,000×g for 20 min to remove cell debris. The corresponding lysate was then further diluted to a total protein concentration of 2 mg/mL as measured by Nanodrop (Thermo Fisher). 48 μL of MCF-7 lysate was added to twelve microcentrifuge tubes (six per compound), followed by treatment of cell lysate with 1 μL solution of NU-1/chrolactomycin (equating to doses ranging from 10 nM to 100 μM). The samples were incubated for 1 hr, followed by addition of 1 μl of 5-iodoacetamido-fluorescein to a final concentration of 10 μM. The samples were again incubated for 1 hr, followed by quenching the reaction with 15 μL NuPAGE LDS Sample Buffer (4×). […]"}, "Saos-2": {"test_system": "Saos-2", "assay": "Cell viability, telomerase-negative cells", "type": "cell-based", "conditions": "Saos-2, up to 100 μM"}, "[2]": {"assay": "Schiff-base measurement with glycine", "type": "physicochemical", "conditions": "incubation with glycine", "procedure": "Schiff-Base Measurement. A 1 mM stock solution of NU-1 in DMSO-d6 was added to a solution of 5 mM solution of glycine in D2O in an NMR tube. The mixture was analyzed by ^1H NMR over 48 hours to analyze formation of Schiff-bases with the ketone of NU-1."}, "tcTERT": {"test_system": "tcTERT", "assay": "Protease digestion and mass spectrometry of treated tcTERT", "type": "binding, Tribolium castaneum", "conditions": "proteolysis and tandem mass spectrometry", "procedure": "Protease Digestion and Mass Spectrometry Analysis. tcTERT (50 μg, ˜600 pmol) was treated with chrolactomycin, NU-1, helenalin, costunolide or DMSO for 1 hr at 37° C. The reaction was diluted with ammonium bicarbonate buffer (pH 8.0), then reduced for 30 min at 56° C. with 10 mM DTT. After cooling to 23° C., the protein was alkylated with 25 mM iodoacetamide for 30 min at 23° C. in the dark, followed by trypsin digestion (2.5 μg, Promega) overnight at 37° C. Digested peptides (˜2 pmol) were injected onto a self-packed precolumn (4 cm POROS10R2) and eluted into the mass spectrometer (LTQ Orbitrap Velos, Thermo Fisher). Peptides were subjected to MS^2 by CAD (electron multiplier detection, relative collision energy 35%, q=0.25)."}, "CYP1A2": {"molecular_target": "T2, CYP1A2 (Homo sapiens, UniProt P05177)", "T2 construct": "purchased Thermo Fisher", "T2 sequence (P05177 1-516)": "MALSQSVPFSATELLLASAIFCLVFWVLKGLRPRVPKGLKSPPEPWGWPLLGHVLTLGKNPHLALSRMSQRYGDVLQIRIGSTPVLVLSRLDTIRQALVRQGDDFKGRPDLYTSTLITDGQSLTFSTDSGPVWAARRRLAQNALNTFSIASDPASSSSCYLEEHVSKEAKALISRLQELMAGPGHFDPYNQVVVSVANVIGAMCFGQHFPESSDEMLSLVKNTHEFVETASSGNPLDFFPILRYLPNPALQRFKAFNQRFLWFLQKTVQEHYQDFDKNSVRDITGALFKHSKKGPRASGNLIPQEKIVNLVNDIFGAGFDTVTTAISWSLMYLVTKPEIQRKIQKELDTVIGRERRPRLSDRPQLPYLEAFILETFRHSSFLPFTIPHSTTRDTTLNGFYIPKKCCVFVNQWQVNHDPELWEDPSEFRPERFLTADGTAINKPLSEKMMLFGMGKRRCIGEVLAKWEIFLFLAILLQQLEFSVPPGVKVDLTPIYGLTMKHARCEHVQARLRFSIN", "assay": "CYP450 inhibition assay", "type": "in vitro ADME", "conditions": "in words", "procedure": "CYP450 Inhibition Assay. Assay was conducted using the commercially available Vivid CYP1A2 Screening Kit (Thermo Fisher) according to the manufacturer's protocol. α-napthoflavone and DMSO were used as a positive and negative control respectively based on the manufacturer's protocol."}, "telomerase in MCF7 cells": {"molecular_target": "T3, telomerase in MCF7 cells (Homo sapiens, UniProt O14746)", "T3 construct": "endogenous in cells; host or cells: MCF-7", "T3 sequence (O14746 whole entry)": "as the sequence (O14746 whole entry) above", "T3 sequence (O60832 whole entry partner)": "as the sequence (O60832 whole entry partner) above", "T3 sequence (Q9NPE3 whole entry partner)": "as the sequence (Q9NPE3 whole entry partner) above", "T3 sequence (Q9NX24 whole entry partner)": "as the sequence (Q9NX24 whole entry partner) above", "T3 sequence (Q9NY12 whole entry partner)": "as the sequence (Q9NY12 whole entry partner) above", "T3 sequence (Q9BUR4 whole entry partner)": "as the sequence (Q9BUR4 whole entry partner) above", "assay": "Compound washout TRAP analysis", "type": "cell-based", "procedure": "Compound Washout TRAP analysis. MCF-7 cells were plated in 96 well plates and allowed to attach for 24 h. Media was removed, and fresh media containing various concentrations of compound was added, and the plate was incubated for 24 h. Media was removed, cells were washed 2 times with PBS, and fresh media without compound was added. Cells were incubated at 37° C. for an additional “X” hours. […] The cell extract was then centrifuged at 12,000 g for 20 min at 4° C. to remove cell debris. Note: “fresh” media constitutes media supplemented with 10% Fetal Bovine Serum (FBS) and 1% pen/strep that has not been previously used for cell culture (e.g., not conditioned media”). TRAP analysis was conducted as above."}, "Plasma stability assay": {"assay": "Plasma stability assay", "type": "in vitro ADME", "conditions": "in words"}}, "data": [{"smiles": "C=C1C(=O)[C@](C)(C(=O)OC)[C@H](CCc2cn(Cc3ccc(F)cc3F)nn2)O[C@@H]1C", "note": "[NU-1, methyl (2S,3R,6R)-2-(2-(1-(2,4-difluorobenzyl)-1H-1,2,3-triazol-4-yl)ethyl)-3,6-dimethyl-5 methylene-4-oxotetrahydro-2H-pyran-3-carboxylate]", "values": [{"measurement": "IC50", "setting": "[1]", "value": 270, "unit": "nM"}, {"measurement": "off-target protein labeling (loss of protein banding)", "setting": "MCF-7 proteome", "value": "minimal loss of protein banding and streaking"}, {"measurement": "effect on viability", "setting": "Saos-2", "value": "did not affect viability"}, {"measurement": "ketone-Schiff base formation", "setting": "[2]", "value": "no ketone-Schiff base formation"}, {"measurement": "adduct formation with tcTERT peptides", "setting": "tcTERT", "value": "single modified peptide"}, {"measurement": "CYP450 inhibition profile", "setting": "CYP1A2", "value": "favorable"}, {"measurement": "telomerase activity after washout", "setting": "telomerase in MCF7 cells; MCF7 cells washed, 4 h recovery", "value": "remained blocked"}, {"measurement": "telomerase activity after washout", "setting": "telomerase in MCF7 cells; washed, fresh media, 24 h", "value": "did not restore"}, {"measurement": "plasma stability", "setting": "Plasma stability assay", "value": "satisfactory performance"}]}]}
